“Also recorded” adds a separate entry of the source.
Experiments:
Panc-1 cells = assay: APH cell viability assay, 2D culture; type: cell-based, human; conditions: Panc-1, 2D culture, 30 µM
Description: (§1) The following well-characterized human pancreatic ductal adenocarcinoma cell lines (ATCC) were used: HPAF II, BxPC-3, MIA-PaCa2 and Panc-1. These cell lines were generated from patient-derived tumors and are widely used model system to study pancreatic cancer (HPAF II: Kim YW, et al. Pancreas 4: 353-362, 1989; BxPC-3: Tan MH, et al. Cancer Invest. 4: 15-23, 1986; MIA-PaCa2: Yunis AA, et al. Int. J. Cancer 19: 128-135, 1977; Pacn-1: Lieber M, et al. Int. J. Cancer 15: 741-747, 1975).
For 2D culture, cells were seeded on flat bottom 96 well plates (Costar) at a concentration of 2500 cells/well in 100 µl phenol red-free RPMI-F12 medium containing 10% FCS. For 3D culture, cells were seeded according to the description for spheroid preparation in phenol-free medium. On day 4 Vacquinol-1 RS (S1) was added at the indicated final concentrations in an extra volume of 10 µl/well and in 8 replicates for each time point. On day 7, an APH assay (See below) was performed. The viability rate was calculated as a percentage of the untreated cells. All data were expressed as the mean ± SD of at least 8 replicates. To confirm the reliability of the APH assay on 2D culture, cell viability was measured using CellTiter-Glo assay (Promega).
The APH assay, which measures the activity of acidic phosphatase in the cells, was optimized for 3D cultures as follows. Only 70µl of medium was removed in order not to suck up the spheres. Then 60µl of PBS was added per well and 100µl of APH buffer (0.1 M sodium acetate pH 5.2 and 0.1 % triton X-100) containing the substrate (2mg/ml p-nitrophenyl phosphate, final pH 4.8 from Thermo Scientific). After 2 hours incubation for the 2D culture and 5 hours for the 3D culture, 10µl of 1 M NaOH was added to stop the APH activity. Absorbance at 405nm was measured within 10 minutes using a FluoStar OPTIMA plate reader (BMG Labtech). Viability rate was calculated as per cent of CTR untreated cells. All data are expressed as the mean ± SD of at least 8 replicates.

KPC cells = assay: ATP viability assay (CellTiter-Glo), 3D culture, automatic drug screen; type: cell-based, mouse; conditions: 72h
Description: Panc-1, HPAF II, KPC pancreatic adenocarcinoma cell lines were trypsin-treated and counted using the Casy Cell Counter according to the manufacturer's recommendations (GmbH). Subsequently, they were seeded onto round bottom non-tissue culture treated 96 well-plates (Falcon, BD NJ, USA) at a concentration of 2500 cells/well in 100 µl DMEM-F12 or phenol red-free DMEM-F12 medium, containing 10% FCS and supplemented with 20% methyl cellulose stock solution. For preparation of methylcellulose stock solution, 6 grams of methylcellulose powder (M0512, Sigma-Aldrich) was autoclaved in a 500 ml flask containing a magnetic stirrer (the methylcellulose powder is resistant to this procedure). The autoclaved methylcellulose was dissolved in preheated 250 ml basal medium (60°C) for 20 min (using the magnetic stirrer). Thereafter, 250 ml medium (room temperature) containing double amount of FCS (20%) was added to a final volume of 500 ml and the whole solution mixed overnight at 4°C. The final stock solution was aliquoted and cleared by centrifugation (5000g, 2 h, room temperature). […]
In order to confirm the results presented in figure 1, S1 was further tested in 2 different cell lines in 3D culture format, using an automatic drug screening assay. The effect of Vacquinol-1 RS (S1) on cell viability was measured after 72h using the CellTiter-Glo assay (Promega) adapted for 3D culture.

BxPCI-2 cell line = assay: ATP viability assay (CellTiter-Glo); type: cell-based; conditions: Homo sapiens; BxPCI-2 (wild type RAS); at 24h, 48h and 72h
Description: as §1
(§2) Viability assay was conducted in 96 well microtiter plates seeded with 3000 cells. Cell viability was measured using CellTiter-Glo assay (Promega), according to the manufacturer's instructions. Luminescence was measured using Victor3 FA (Perkin Elmer) microtiter plate reader. Total luminescence was normalized relative to negative control and curve fitting performed using GraphPad Prism (v6.02) software. IC50 was determined using Cell Viability assay, and data was illustrated using GraphPad Prism (version 6.02)

MIA-PaCa-2 cell line = assay: ATP viability assay (CellTiter-Glo); type: cell-based; conditions: Homo sapiens; MIA-PaCa-2 (RAS mutation); at 24h, 48h and 72h
Description: as §1, §2

[1] = system: glioblastoma cell line U3013; assay: ATP viability assay (CellTiter-Glo); type: cell-based, human
Description: The human melanoma cell line SK-MEL-28 is a well established reference cell line in melanoma research (Goodfellow M, et al. J. Natl. Cancer Inst. 59: 221-226, 1977). Cells were cultured in MEM supplemented with 10% FCS. Glioblastoma cell line (U3013) was generated directly from patient-derived tumors (Kitambi et al. Cell. 2014: 157(2):313-28) and grown in serum-free media supplemented with N2, B27, EGF, and FGF-2 (20 ng/ml) using previously described methodology (Pollard et al., 2009).
Culture plates were pre-coated with laminin (Sigma) for 3 hr at 10 ug/ml prior to use and confluent cells were split 1:3 to 1:5 using TrypLE Express (Invitrogen).
as §2

- IC50 (BxPCI-2 cell line): 12 to 19 µM
- IC50 (MIA-PaCa-2 cell line): 12 to 19 µM
- IC50 ([1]; Homo sapiens, U3013, positive control cell line, 24, 48 and 72 h): 1.9 to 3.5 µM
Structure (SMILES): O[C@H](c1cc(-c2ccc(Cl)cc2)nc2ccccc12)[C@@H]1CCCCN1 [S1, (R)-(2-(4-chlorophenyl)quinolin-4-yl)((S)-piperidin-2-yl)methanol]
- decrease in cell viability (Panc-1 cells; 24h): 43%
- decrease in cell viability (Panc-1 cells; 48h): 63%
- decrease in cell viability (Panc-1 cells; 72h): 70%
- reduction in viability (KPC cells; 10 µM): ~50%
- viability compared to control (KPC cells; 30-15 µM): complete loss of viability
- in vitro cytotoxicity, comparison of isolated isomers ([1]; U3013, dose response, CellTiterGlo ATP quantification): S1 and S2 exhibit greater in vitro oncolytic potency than the corresponding S3 and S4 isomers; also recorded: S1 and S2 exhibit higher cytotoxicity on cancer cells than S3 and S4

Source: patent EP3064205A1, “Therapeutic use of isomeric forms of 2-(4-chlorophenyl)quinolin-4-yl)(piperidin-2-yl)methanol” (Glionova AB, priority 2015, dated 2016)
